According to patent publication US11795177B2, “Substituted quinoline analogs as aldehyde dehydrogenase 1A1 (ALDH1A1) inhibitors” (THE UNITED STATES OF AMERICA, AS REPRESENTED BY THE …, priority 2017, dated 2023):

Columns and labels:
[1] = biological target: T1, ALDH1A1 enzyme (Homo sapiens, UniProt P00352); experiment: ALDH1A1 enzymatic assay (in vitro); assay type: biochemical; conditions: ALDH1A1 enzyme 20 nM, NAD+ 1 mM, propionaldehyde 80 μM; read-out: ALDH1A1 IC50
T1 sequence (P00352 1-501): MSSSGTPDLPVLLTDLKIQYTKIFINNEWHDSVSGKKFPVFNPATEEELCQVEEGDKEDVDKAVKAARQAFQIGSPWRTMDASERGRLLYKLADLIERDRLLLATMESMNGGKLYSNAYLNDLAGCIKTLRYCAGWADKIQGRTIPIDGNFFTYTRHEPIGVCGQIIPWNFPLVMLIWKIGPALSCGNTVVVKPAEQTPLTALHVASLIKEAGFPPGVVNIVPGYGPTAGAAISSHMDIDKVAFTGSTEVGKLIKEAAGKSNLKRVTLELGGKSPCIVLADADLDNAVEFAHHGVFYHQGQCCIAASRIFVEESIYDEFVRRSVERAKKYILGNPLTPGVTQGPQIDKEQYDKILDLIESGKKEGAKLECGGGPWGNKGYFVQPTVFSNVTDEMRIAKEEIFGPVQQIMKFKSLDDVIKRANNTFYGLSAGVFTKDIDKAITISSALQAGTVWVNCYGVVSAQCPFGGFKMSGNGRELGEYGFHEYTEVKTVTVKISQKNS
Method in brief: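 ALDH1A1 (20 nM final) in 100 mM HEPES pH 7.5, 0.01% Tween 20 was preincubated 15 min at RT with compound (968 pM–57.2 μM final), then started with 1 mM NAD+ and 80 μM propionaldehyde. NADH fluorescence (ex 340/em 450 nm) followed kinetically for 10 min; change normalized to no-inhibitor and no-enzyme controls for percent inhibition and curve fitting.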

[2] = system: MIA PaCa-2 cells; experiment: MIA PaCa2 cell-based assay (1,536-well high-content imaging ALDEFLUOR assay); design: species or system human; conditions: Homo sapiens, 0.5 h, ALDEFLUOR BAAA substrate 500 nM, 30 minutes
Method in brief: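 High-content ALDEFLUOR imaging readout: BAA-retaining cells in FITC channel scored against Hoechst-counted nuclei. Before imaging, MIA PaCa-2 cells seeded at 1,000 per well received final 500 nM BAAA and 0.5 nM Hoechst with compounds in 16-point series (1.4 nM to 47.8 μM), 30 min, 37° C.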

Row | Compound | IC50 [1] [nM] | IC50 [2] [µM]
1 | CCNC(=O)N1CCN(C(=O)c2cnc3cc(F)c(F)cc3c2N2CCC3(CC2)OCCO3)CC1 [Example 142, 4-(6,7-difluoro-4-(1,4-dioxa-8-azaspiro[4.5]decan-8-yl)quinoline-3-carbonyl)-N-ethylpiperazine-1-carboxamide] | < 500 | 1 to 10
2 | CCNC(=O)N1CCN(C(=O)c2cnc3c(F)c(OC)c(F)cc3c2N2CCC3(CC2)OCCO3)CC1 [Example 143, 4-(6,8-difluoro-7-methoxy-4-(1,4-dioxa-8-azaspiro[4.5]decan-8-yl)quinoline-3-carbonyl)-N-ethylpiperazine-1-carboxamide] | < 500 | 1 to 10
3 | CCNC(=O)N1CCN(C(=O)c2cnc3c(F)c(F)c(F)cc3c2N2CCC3(CC2)OCCO3)CC1 [Example 144, N-ethyl-4-(6,7,8-trifluoro-4-(1,4-dioxa-8-azaspiro[4.5]decan-8-yl)quinoline-3-carbonyl)piperazine-1-carboxamide] | < 500 | 1 to 10
4 | CCNC(=O)N1CCN(C(=O)c2cnc3c(F)cc(F)cc3c2N2CCC(C)(C#N)CC2)CC1 [Example 145, 4-(4-(4-cyano-4-methylpiperidin-1-yl)-6,8-difluoroquinoline-3-carbonyl)-N-ethylpiperazine-1-carboxamide] | 500 to 1000 | > 10
5 | CCNC(=O)N1CCN(C(=O)c2cnc3cc(F)c(F)cc3c2N2CCC(C)(C#N)CC2)CC1 [Example 146, 4-(4-(4-cyano-4-methylpiperidin-1-yl)-6,7-difluoroquinoline-3-carbonyl)-N-ethylpiperazine-1-carboxamide] | 500 to 1000 | 1 to 10
6 | CCNC(=O)N1CCN(C(=O)c2cnc3c(F)c(OC)c(F)cc3c2N2CCC(C)(C#N)CC2)CC1 [Example 147, 4-(4-(4-cyano-4-methylpiperidin-1-yl)-6,8-difluoro-7-methoxyquinoline-3-carbonyl)-N-ethylpiperazine-1-carboxamide] | < 500 | 1 to 10
7 | CCNC(=O)N1CCN(C(=O)c2cnc3c(F)c(F)c(F)cc3c2N2CCC(C)(C#N)CC2)CC1 [Example 148, 4-(4-(4-cyano-4-methylpiperidin-1-yl)-6,7,8-trifluoroquinoline-3-carbonyl)-N-ethylpiperazine-1-carboxamide] | 1000 to 10000 | 1 to 10
8 | CCN(CC)C(=O)N1CCN(C(=O)c2cnc3ccc(F)cc3c2N2CCC3(CC2)OCCO3)CC1 [Example 149, N,N-diethyl-4-(6-fluoro-4-(1,4-dioxa-8-azaspiro[4.5]decan-8-yl)quinoline-3-carbonyl)piperazine-1-carboxamide] | < 500 | 1 to 10
9 | O=C(c1cnc2ccc(F)cc2c1N1CCC2(CC1)OCCO2)N1CCN(C(=O)N2CCCC2)CC1 [Example 150, (6-fluoro-4-(1,4-dioxa-8-azaspiro[4.5]decan-8-yl)quinolin-3-yl)(4-(pyrrolidine-1-carbonyl)piperazin-1-yl)methanone] | < 500 | > 10
10 | CCS(=O)(=O)N1CCN(C(=O)c2cnc3ccc(F)cc3c2N2CCC3(CC2)OCCO3)CC1 [Example 151, (4-(ethylsulfonyl)piperazin-1-yl)(6-fluoro-4-(1,4-dioxa-8-azaspiro[4.5]decan-8-yl)quinolin-3-yl)methanone] | < 500 | 1 to 10
11 | CN(C)S(=O)(=O)N1CCN(C(=O)c2cnc3ccc(F)cc3c2N2CCC3(CC2)OCCO3)CC1 [Example 152, 4-(6-fluoro-4-(1,4-dioxa-8-azaspiro[4.5]decan-8-yl)quinoline-3-carbonyl)-N,N-dimethylpiperazine-1-sulfonamide] | < 500 | 0.5 to 1
12 | O=C(c1cnc2ccc(F)cc2c1N1CCC2(CC1)OCCO2)N1CCN(S(=O)(=O)N2CCCC2)CC1 [Example 153, (6-fluoro-4-(1,4-dioxa-8-azaspiro[4.5]decan-8-yl)quinolin-3-yl)(4-(pyrrolidin-1-ylsulfonyl)piperazin-1-yl)methanone] | < 500 | > 10
13 | CCN(CC)C(=O)N1CCN(C(=O)c2cnc3ccc(F)cc3c2N2CCC(C)(C#N)CC2)CC1 [Example 154, 4-(4-(4-cyano-4-methylpiperidin-1-yl)-6-fluoroquinoline-3-carbonyl)-N,N-diethylpiperazine-1-carboxamide] | < 500 | 1 to 10
14 | CC1(C#N)CCN(c2c(C(=O)N3CCN(C(=O)N4CCCC4)CC3)cnc3ccc(F)cc23)CC1 [Example 155, 1-(6-fluoro-3-(4-(pyrrolidine-1-carbonyl)piperazine-1-carbonyl)quinolin-4-yl)-4-methylpiperidine-4-carbonitrile] | 1000 to 10000 | > 10
15 | CC1(C#N)CCN(c2c(C(=O)N3CCN(S(=O)(=O)N4CCCC4)CC3)cnc3ccc(F)cc23)CC1 [Example 158, 1-(6-fluoro-3-(4-(pyrrolidin-1-ylsulfonyl)piperazine-1-carbonyl)quinolin-4-yl)-4-methylpiperidine-4-carbonitrile] | 1000 to 10000 | > 10
16 | CCN(CC)C(=O)N1CCN(C(=O)c2cnc3c(F)cc(F)cc3c2N2CCC3(CC2)OCCO3)CC1 [Example 159, 4-(6,8-difluoro-4-(1,4-dioxa-8-azaspiro[4.5]decan-8-yl)quinoline-3-carbonyl)-N,N-diethylpiperazine-1-carboxamide] | < 500 | 1 to 10
17 | O=C(c1cnc2c(F)cc(F)cc2c1N1CCC2(CC1)OCCO2)N1CCN(C(=O)N2CCCC2)CC1 [Example 160, (6,8-difluoro-4-(1,4-dioxa-8-azaspiro[4.5]decan-8-yl)quinolin-3-yl)(4-(pyrrolidine-1-carbonyl)piperazin-1-yl)methanone] | < 500 | > 10
18 | CCS(=O)(=O)N1CCN(C(=O)c2cnc3c(F)cc(F)cc3c2N2CCC3(CC2)OCCO3)CC1 [Example 161, (6,8-difluoro-4-(1,4-dioxa-8-azaspiro[4.5]decan-8-yl)quinolin-3-yl)(4-(ethylsulfonyl)piperazin-1-yl)methanone] | < 500 | 1 to 10
19 | CN(C)S(=O)(=O)N1CCN(C(=O)c2cnc3c(F)cc(F)cc3c2N2CCC3(CC2)OCCO3)CC1 [Example 162, 4-(6,8-difluoro-4-(1,4-dioxa-8-azaspiro[4.5]decan-8-yl)quinoline-3-carbonyl)-N,N-dimethylpiperazine-1-sulfonamide] | < 500 | 0.5 to 1
20 | O=C(c1cnc2c(F)cc(F)cc2c1N1CCC2(CC1)OCCO2)N1CCN(S(=O)(=O)N2CCCC2)CC1 [Example 163, (6,8-difluoro-4-(1,4-dioxa-8-azaspiro[4.5]decan-8-yl)quinolin-3-yl)(4-(pyrrolidin-1-ylsulfonyl)piperazin-1-yl)methanone] | < 500 | > 10
21 | CCN(CC)C(=O)N1CCN(C(=O)c2cnc3c(F)cc(F)cc3c2N2CCC(C)(C#N)CC2)CC1 [Example 164, 4-(4-(4-cyano-4-methylpiperidin-1-yl)-6,8-difluoroquinoline-3-carbonyl)-N,N-diethylpiperazine-1-carboxamide] | 500 to 1000 | 1 to 10
22 | CC1(C#N)CCN(c2c(C(=O)N3CCN(C(=O)N4CCCC4)CC3)cnc3c(F)cc(F)cc23)CC1 [Example 165, 1-(6,8-difluoro-3-(4-(pyrrolidine-1-carbonyl)piperazine-1-carbonyl)quinolin-4-yl)-4-methylpiperidine-4-carbonitrile] | 1000 to 10000 | 1 to 10
23 | CCS(=O)(=O)N1CCN(C(=O)c2cnc3c(F)cc(F)cc3c2N2CCC(C)(C#N)CC2)CC1 [Example 166, 1-(3-(4-(ethylsulfonyl)piperazine-1-carbonyl)-6,8-difluoroquinolin-4-yl)-4-methylpiperidine-4-carbonitrile] | < 500 | 1 to 10
24 | CN(C)S(=O)(=O)N1CCN(C(=O)c2cnc3c(F)cc(F)cc3c2N2CCC(C)(C#N)CC2)CC1 [Example 167, 4-(4-(4-cyano-4-methylpiperidin-1-yl)-6,8-difluoroquinoline-3-carbonyl)-N,N-dimethylpiperazine-1-sulfonamide] | < 500 | < 0.5
25 | CC1(C#N)CCN(c2c(C(=O)N3CCN(S(=O)(=O)N4CCCC4)CC3)cnc3c(F)cc(F)cc23)CC1 [Example 168, 1-(6,8-difluoro-3-(4-(pyrrolidin-1-ylsulfonyl)piperazine-1-carbonyl)quinolin-4-yl)-4-methylpiperidine-4-carbonitrile] | 1000 to 10000 | > 10
26 | CCN(CC)C(=O)N1CCN(C(=O)c2cnc3cc(F)c(F)cc3c2N2CCC3(CC2)OCCO3)CC1 [Example 169, 4-(6,7-difluoro-4-(1,4-dioxa-8-azasprio[4.5]decan-8-yl)quinoline-3-carbonyl)-N,N-diethylpiperazine-1-carboxamide] | < 500 | 1 to 10
